From paper PMC12042115 (mLife, 2025)

Assay: Hydrolysis in protein‐free buffer (data not published)
Format: physicochemical
Settings: over time

O=C(Oc1ccc(Cl)cc1)c1ccc(N2CCOCC2)c([N+](=O)[O-])c1 [GDI‐5755]
stability in protein‐free buffer: susceptible to hydrolysis
